From patent publication US11827611B2, “Ubiquitin-specific peptidase 24 inhibitor, medicinal composition including the same and method of delaying or reversing multidrug resistance in cancers using the same” (NATIONAL CHENG KUNG UNIVERSITY, priority 2020, dated 2023)
Counter-ions that a name gives are not always drawn. Like-named read-outs stand apart in the source and are kept apart here. One block for each molecule: values may come before it.

What was measured:
[1] = test system: USP24 substrates, Bax and BRD7, in A549 cells; assay: protein levels of USP24 substrates in A549 cells treated with USP24 inhibitor candidates (Western blotting); assay type: cell-based, human; settings: for levels of Bax, BRD7 / level of p300: A549 cells; for levels of Bax, BRD7: FIG. 4B; for level of p300: FIG. 4D
From the text: FIG. 4B illustrates a bar diagram showing the relative protein levels of USP24 substrates, Bax and BRD7, in A549 cells treated with various USP24 inhibitor candidates according to several embodiments of the present invention.
FIG. 4D illustrates the result of Western blotting assay with anti-Ubiquitin antibodies for evaluating the ubiquitination of p300 in A549 cells with or without USP24 overexpression or USP24 inhibitor according to an embodiment of the present invention.
Human lung adenocarcinoma epithelial cell line A549 and other lung cancer cell lines were cultured with RPMI 1640 medium (Invitrogen) containing 10% fetal bovine serum (FBS), 100 μg/ml streptomycin and 100 U/ml penicillin G sodium. All cells were incubated at 37° C. with 5% CO2. For transfecting plasmid, Polyjet (SignaGen) was used according to manufacturer's instructions.

USP24 = USP24 (Homo sapiens, UniProt Q9UPU5); assay: in vitro enzyme assay of pure recombinant USP24 protein with biotin-tetra-ub as the substrate; assay type: biochemical; settings: for catalytic activity of recombinant purified USP24 proteins: biotin-tetra-ub substrate, FIG. 4C / 6C
From the text: FIG. 4C illustrates the result of in vitro enzyme assay of the enzyme activity of USP24 pure recombinant USP24 protein with biotin-tetra-ub as the substrate in the absence or presence of USP24 inhibitor according to several embodiments of the present invention.
FIG. 6C illustrates the result of in vitro enzyme assay of the enzyme activity of USP24 pure recombinant USP24 protein with biotin-tetra-ub as the substrate in the absence or presence of USP24 inhibitor according to several embodiments of the present invention.

USP7 = USP7 (Homo sapiens, UniProt Q93009); assay: catalytic activity of USP7; assay type: biochemical; settings: data not shown
USP10 = USP10 (Homo sapiens, UniProt Q14694); assay: catalytic activity of USP10; assay type: biochemical; settings: data not shown
lung cancer = lung cancer migratory ability; assay type: cell-based; settings: data not shown
T24 cells [2] = assay: taxol concentration inside cells evaluated by LC/MS/MS; assay type: cell-based, human
From the text: FIG. 2H illustrates the images of the taxol concentration inside cells evaluated by LC/MS/MS with or without USP24 knockdown according to an embodiment of the present invention.
FIG. 4J illustrates the concentration of taxol inside cells treated with USP24 inhibitor evaluated by LC/MS/MS according to an embodiment of the present invention.
FIG. 6B illustrates the profiles of the taxol concentration in the taxol-resistant T24 cells treated with USP24-i101 (the upper panel) or DMSO (lower panel) detected by LC/MS/MS analysis according to an embodiment of the present invention.

USP9x = USP9x (Homo sapiens, UniProt Q93008); assay: catalytic activity of USP9x; assay type: biochemical; settings: data not shown
T24 cells [3] = assay: cytotoxicity of T24 cells in the treatment of taxol with or without USP24 inhibitor; assay type: cell-based, human; settings: FIG. 4E
From the text: (§1) FIG. 4E(a) to 4F(c) illustrate the results of the cytotoxicity of T24 cells [FIGS. 4E(a) and 4E(b)], TMZR [FIG. 4F(a)], Hone-1 CPT-R [FIG. 4F(b)] and HCT116OX5 [FIG. 4F(c)] treated with or without USP24 inhibitor according to several embodiments of the present invention.
FIG. 6A(a) to 6A(b) illustrate the results of the cytotoxicity of T24 cells in the treatment of taxol with or without USP24 inhibitor treatment according to an embodiment of the present invention.

TMZR = assay: cytotoxicity of TMZR cells treated with or without USP24 inhibitor; assay type: cell-based; settings: FIG. 4F(a)
From the text: as §1

Hone-1 CPT-R = assay: cytotoxicity of Hone-1 CPT-R cells treated with or without USP24 inhibitor; assay type: cell-based; settings: FIG. 4F(b)
From the text: as §1

HCT116OX5 = assay: cytotoxicity of HCT116OX5 cells treated with or without USP24 inhibitor; assay type: cell-based; settings: HCT116OX5, FIG. 4F(c)
From the text: as §1

P-gp = assay: Western blotting of the level and protein stability of P-gp in T24 treated with USP24 inhibitor; assay type: cell-based, human; settings: T24 cells
From the text: FIG. 4G(a) to 4H(b) illustrate the results of Western blotting assay of the level and protein stability of P-gp in T24 treated with USP24 inhibitor according to an embodiment of the present invention.

T24 cells [4] = assay: sphere formation of T24 cells with or without USP24 inhibitor; assay type: cell-based, human
From the text: FIGS. 41(a) and 41(b) illustrate the results of the sphere formation of T24 cells with or without USP24 inhibitor treatment according to an embodiment of the present invention.

T24 = assay: tumor size of T24 injected into SCID mice treated with taxol and USP24 inhibitor; assay type: in vivo; settings: combined with taxol
From the text: (§2) FIGS. 4K(a) and 4K(b) illustrate the results of the tumor size of T24 injected into SCID mice treated with taxol and USP24 inhibitor in the indicated time according to an embodiment of the present invention.
The experiments related with animals were approved by the Institutional Animal Care and Use Committee (IACUC) at National Cheng Kung University (NCKU). These transgenic mice were generated in National Laboratory Animal Center (NLAC, Taiwan, Tainan). After breeding, two-month-old transgenic mice were used to study lung cancer development. Caging was provided suitable space and accommodates appropriate population densities that allow animals' sufficient freedom of movement. To provide amounts of food that must be for transgenic mice normal growth, and maintenance of normal body weight. These transgenic mice were accessed to fresh and uncontaminated drinking water. Transgenic mice were also observed and cared at least for two to three times per week. All methods involving animals were performed in accordance with the relevant guidelines and regulations.

EMT markers = assay: EMT markers; assay type: cell-based
[5] = body weight of SCID mice treated with taxol and USP24 inhibitor; assay type: in vivo; settings: data not shown
From the text: as §2

[6] = cytotoxicity of HCC827-GR cells treated with or without USP24 inhibitor under various concentrations of Gefitinib; settings: human
HCC827-GR cells = assay: as above

Chain of USP24 (Q9UPU5 whole entry): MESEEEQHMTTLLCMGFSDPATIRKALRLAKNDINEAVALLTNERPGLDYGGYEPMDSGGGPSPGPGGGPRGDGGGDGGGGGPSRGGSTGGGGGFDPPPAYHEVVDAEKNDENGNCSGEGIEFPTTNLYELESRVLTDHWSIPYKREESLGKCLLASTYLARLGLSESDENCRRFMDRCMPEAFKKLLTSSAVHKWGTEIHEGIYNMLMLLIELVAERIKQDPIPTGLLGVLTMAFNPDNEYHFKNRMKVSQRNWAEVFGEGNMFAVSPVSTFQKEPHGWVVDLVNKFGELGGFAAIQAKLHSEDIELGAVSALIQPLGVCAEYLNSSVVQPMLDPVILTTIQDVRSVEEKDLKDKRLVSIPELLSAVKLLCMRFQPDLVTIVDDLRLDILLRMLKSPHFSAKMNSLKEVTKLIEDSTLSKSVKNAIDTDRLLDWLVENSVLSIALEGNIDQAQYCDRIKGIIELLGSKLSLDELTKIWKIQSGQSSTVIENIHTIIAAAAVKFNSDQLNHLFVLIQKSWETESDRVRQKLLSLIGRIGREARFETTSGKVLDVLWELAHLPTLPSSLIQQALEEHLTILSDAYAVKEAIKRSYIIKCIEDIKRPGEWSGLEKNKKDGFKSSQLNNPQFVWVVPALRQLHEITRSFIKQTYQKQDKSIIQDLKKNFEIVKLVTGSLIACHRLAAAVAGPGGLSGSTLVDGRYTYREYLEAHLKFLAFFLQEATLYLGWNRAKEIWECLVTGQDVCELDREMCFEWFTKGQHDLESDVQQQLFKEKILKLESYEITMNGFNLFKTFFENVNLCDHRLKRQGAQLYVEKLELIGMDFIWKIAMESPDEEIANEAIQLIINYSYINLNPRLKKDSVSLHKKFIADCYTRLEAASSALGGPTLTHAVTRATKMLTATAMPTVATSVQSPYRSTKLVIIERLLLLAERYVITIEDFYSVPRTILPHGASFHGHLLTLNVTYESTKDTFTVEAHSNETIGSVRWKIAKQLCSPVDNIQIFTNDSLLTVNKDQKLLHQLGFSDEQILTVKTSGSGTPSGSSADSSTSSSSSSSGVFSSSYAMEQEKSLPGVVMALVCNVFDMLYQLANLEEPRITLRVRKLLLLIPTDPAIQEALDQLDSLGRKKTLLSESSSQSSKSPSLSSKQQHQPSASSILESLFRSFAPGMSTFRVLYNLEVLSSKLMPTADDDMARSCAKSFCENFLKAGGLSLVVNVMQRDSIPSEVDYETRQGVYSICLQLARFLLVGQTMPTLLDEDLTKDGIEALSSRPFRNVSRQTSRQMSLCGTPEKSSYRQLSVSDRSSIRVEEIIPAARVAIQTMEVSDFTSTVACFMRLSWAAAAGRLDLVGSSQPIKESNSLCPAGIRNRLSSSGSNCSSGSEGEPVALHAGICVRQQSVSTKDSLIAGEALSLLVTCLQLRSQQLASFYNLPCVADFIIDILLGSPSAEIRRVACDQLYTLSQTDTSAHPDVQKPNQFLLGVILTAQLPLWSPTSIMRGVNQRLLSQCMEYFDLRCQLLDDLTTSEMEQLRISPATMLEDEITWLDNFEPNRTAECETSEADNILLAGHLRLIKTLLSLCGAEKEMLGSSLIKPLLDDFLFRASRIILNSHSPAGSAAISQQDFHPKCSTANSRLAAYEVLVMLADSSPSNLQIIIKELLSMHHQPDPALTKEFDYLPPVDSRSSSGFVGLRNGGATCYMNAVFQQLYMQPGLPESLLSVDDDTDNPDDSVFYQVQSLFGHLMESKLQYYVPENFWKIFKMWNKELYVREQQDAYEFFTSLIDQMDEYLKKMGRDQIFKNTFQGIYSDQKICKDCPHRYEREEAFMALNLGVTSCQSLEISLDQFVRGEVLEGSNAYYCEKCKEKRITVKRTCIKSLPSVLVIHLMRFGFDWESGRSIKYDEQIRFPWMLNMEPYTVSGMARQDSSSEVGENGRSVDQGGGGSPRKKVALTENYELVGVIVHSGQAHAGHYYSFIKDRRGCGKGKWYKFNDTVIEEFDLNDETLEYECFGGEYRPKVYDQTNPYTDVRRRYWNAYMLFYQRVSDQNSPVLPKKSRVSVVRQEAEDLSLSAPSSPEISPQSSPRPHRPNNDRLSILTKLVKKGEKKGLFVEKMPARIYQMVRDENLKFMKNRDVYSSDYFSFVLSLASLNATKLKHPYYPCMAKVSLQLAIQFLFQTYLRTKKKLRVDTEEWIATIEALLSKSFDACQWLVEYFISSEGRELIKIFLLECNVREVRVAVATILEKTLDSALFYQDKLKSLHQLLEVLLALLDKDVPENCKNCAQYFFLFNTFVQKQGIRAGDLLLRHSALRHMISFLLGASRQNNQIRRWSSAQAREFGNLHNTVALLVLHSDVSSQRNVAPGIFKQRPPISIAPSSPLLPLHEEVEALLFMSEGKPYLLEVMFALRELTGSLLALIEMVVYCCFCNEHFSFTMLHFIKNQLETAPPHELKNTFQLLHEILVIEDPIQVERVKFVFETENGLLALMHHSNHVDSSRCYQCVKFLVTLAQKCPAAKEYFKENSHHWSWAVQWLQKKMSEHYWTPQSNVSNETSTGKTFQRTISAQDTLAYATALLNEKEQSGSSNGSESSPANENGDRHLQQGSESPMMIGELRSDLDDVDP
Chain of USP7 (Q93009 whole entry, species assumed): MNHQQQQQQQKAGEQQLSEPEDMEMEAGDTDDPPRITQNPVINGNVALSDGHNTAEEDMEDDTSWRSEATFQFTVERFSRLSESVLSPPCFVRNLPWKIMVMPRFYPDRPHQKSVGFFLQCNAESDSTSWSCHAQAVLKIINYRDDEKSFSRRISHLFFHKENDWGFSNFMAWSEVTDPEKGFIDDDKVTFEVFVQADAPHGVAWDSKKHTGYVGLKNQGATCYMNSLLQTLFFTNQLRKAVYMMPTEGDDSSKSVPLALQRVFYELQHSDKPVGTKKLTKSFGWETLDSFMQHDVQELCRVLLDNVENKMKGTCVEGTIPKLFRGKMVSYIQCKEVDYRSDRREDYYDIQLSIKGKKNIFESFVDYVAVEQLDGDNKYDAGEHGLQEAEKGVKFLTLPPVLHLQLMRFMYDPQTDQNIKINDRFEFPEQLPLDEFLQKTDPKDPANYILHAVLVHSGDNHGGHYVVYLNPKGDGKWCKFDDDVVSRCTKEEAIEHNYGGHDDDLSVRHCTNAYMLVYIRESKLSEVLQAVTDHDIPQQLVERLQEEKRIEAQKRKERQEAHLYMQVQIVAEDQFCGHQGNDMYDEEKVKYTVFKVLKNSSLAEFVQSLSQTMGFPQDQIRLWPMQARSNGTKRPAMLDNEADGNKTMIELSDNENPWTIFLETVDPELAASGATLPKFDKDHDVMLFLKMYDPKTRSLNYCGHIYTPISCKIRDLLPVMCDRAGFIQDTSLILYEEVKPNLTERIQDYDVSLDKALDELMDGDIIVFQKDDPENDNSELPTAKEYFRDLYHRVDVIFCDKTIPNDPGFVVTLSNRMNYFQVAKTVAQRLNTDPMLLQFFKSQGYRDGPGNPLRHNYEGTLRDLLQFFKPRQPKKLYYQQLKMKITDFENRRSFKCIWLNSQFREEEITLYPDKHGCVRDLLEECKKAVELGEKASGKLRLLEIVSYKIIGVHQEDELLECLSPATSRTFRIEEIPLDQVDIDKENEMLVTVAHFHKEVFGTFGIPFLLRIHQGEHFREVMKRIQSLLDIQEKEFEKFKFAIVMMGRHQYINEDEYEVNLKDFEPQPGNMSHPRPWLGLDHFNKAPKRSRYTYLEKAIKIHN
Chain of USP10 (Q14694 whole entry): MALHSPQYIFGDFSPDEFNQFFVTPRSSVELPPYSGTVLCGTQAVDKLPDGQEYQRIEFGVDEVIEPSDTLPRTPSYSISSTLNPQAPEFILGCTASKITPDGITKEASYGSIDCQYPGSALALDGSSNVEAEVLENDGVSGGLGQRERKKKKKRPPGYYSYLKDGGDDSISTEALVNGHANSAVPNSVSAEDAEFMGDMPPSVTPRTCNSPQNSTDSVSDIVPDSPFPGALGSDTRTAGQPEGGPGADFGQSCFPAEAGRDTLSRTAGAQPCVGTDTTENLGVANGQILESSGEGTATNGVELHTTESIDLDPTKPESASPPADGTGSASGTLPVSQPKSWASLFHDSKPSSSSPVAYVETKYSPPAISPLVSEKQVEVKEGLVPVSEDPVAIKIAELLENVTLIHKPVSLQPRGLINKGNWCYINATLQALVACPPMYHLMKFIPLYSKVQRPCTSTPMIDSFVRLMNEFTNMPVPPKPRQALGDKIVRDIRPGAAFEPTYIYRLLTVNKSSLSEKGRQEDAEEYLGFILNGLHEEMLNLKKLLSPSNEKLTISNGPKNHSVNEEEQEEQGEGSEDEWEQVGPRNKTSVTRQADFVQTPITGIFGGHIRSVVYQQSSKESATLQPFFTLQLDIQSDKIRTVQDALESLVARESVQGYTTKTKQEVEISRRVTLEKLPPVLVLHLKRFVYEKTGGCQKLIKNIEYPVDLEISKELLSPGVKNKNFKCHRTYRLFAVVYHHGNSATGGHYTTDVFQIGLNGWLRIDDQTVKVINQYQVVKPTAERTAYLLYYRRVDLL

catalytic activity of recombinant purified USP24 proteins (USP24): inhibited the catalytic activity
catalytic activity of USP7 (USP7): could inhibit
catalytic activity of USP10 (USP10): could inhibit
Compound: CCCCNS(=O)(=O)c1ccc(NC(=O)c2ccc3ccccc3c2O)c([N+](=O)[O-])c1 [NCI158067]
levels of Bax, BRD7 [1]: could decrease the levels
level of p300 [1]: could decrease the levels
lung cancer migration (lung cancer): could inhibit lung cancer migration

Compound: CC(=O)O[C@H]1C(=O)[C@@]2(C)[C@H]([C@H](OC(=O)c3ccccc3)[C@]3(O)C[C@H](OC(=O)[C@H](O)[C@@H](NC(=O)c4ccccc4)c4ccccc4)C(C)=C1C3(C)C)[C@]1(OC(C)=O)CO[C@@H]1C[C@@H]2O [taxol]
accumulation of taxol inside the drug resistant cells, T24 (T24 cells [2]; loss of USP24 (knockdown)): 272.7 nM/1000 nM
accumulation of taxol inside the drug resistant cells, T24 (T24 cells [2]; without USP24 knockdown): 110.8 nM/1000 nM

Compound: CCC[C@H](NC(=O)/C(C#N)=C/c1cccc(Br)n1)c1ccccc1 [WP1130, reference compound]
inhibition of the substrates of USP24 in lung cancer ([1]; FIG. 4C): could not inhibit

catalytic activity of recombinant purified USP24 proteins (USP24): inhibited the catalytic activity
specificity in blocking USP24 enzyme activity (USP24; versus USP7, USP9x, USP10): higher specificity
catalytic activity of USP7 (USP7): could not block
catalytic activity of USP9x (USP9x): could not block
catalytic activity of USP10 (USP10): could not block
Compound: CN1CCN(CCCCN2c3ccccc3Sc3ccc(C(=O)c4ccccc4)cc32)CC1 [NCI677397, (10-(4-(4-Methylpiperazin-1-yl)butyl)-10H-phenothiazin-2-yl)(phenyl)methanone oxalate]
concentration of taxol inside cells, with USP24 inhibitor (T24 cells [2]; under 1000 nM taxol treatment): 321.36 nM
levels of Bax, BRD7 [1]: could decrease the levels
level of p300 [1]: could decrease the levels
drug resistance induced by taxol in lung cancer (T24 cells [3]): could significantly block the drug resistance
drug resistance induced by TMZ in brain cancer (TMZR): could significantly block the drug resistance
drug resistance induced by Camptothecin in NPC (Hone-1 CPT-R): could significantly block the drug resistance
drug resistance induced by oxaliplatin in colorectal cancer (HCT116OX5): could significantly block the drug resistance
level of P-gp (P-gp): could decrease the level of P-gp
T24 sphere formation ability (T24 cells [4]): inhibit the T24 sphere formation ability
cytotoxicity of taxol in the inhibition of cancer size and weight (T24): increased the cytotoxicity of taxol in the inhibition of cancer size and weight
lung cancer migration (lung cancer): could inhibit lung cancer migration
EMT markers (EMT markers): inhibited
body weight [5]: did not affect the body weight

Compound: CN1CCN(CCN2c3ccccc3Sc3ccc(C(=O)c4ccccc4)cc32)CC1 [USP24-i101, (10-(2-(4-Methylpiperazin-1-yl)ethyl)-10H-phenothiazin-2-yl)(phenyl)methanone]
catalytic activity of recombinant purified USP24 proteins (USP24): had comparably catalytic activity to NCI699397
viability at 1 μg/mL [6]: 94%
viability at 5 μg/mL [6]: 80.5%
IC50 (HCC827-GR cells; read-out: IC50 of gefitinib in HCC827-GR with USP24-i101, 1 μg/mL of USP24-i101): 6.3 nM
IC50 (HCC827-GR cells; read-out: IC50 of gefitinib in HCC827-GR with USP24-i101, 5 μg/mL of USP24-i101): 3.1 nM
